# Assay results as given in US7517874B2 (priority 2007, dated 2009).
# Where two headings read alike, the source gives them in different places.
# Key:
# rat CB2 receptor (rCB2) = target: T1, rat CB2 receptor (rCB2) (Rattus norvegicus, UniProt Q9QZN9); test: cell-based; format: cell-based; settings: agonist or inverse agonist at rCB2
# T1 sequence (Q9QZN9 1-360): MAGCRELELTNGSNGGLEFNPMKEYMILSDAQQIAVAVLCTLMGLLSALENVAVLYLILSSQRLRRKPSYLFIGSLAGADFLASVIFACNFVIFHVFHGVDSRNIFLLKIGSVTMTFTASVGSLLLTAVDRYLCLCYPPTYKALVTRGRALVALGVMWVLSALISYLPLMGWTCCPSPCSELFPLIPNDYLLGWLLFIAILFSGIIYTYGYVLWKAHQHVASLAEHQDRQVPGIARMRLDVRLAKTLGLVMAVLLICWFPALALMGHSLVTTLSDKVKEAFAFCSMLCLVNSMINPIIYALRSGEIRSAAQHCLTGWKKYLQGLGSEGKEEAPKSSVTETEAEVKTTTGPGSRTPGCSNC
# Procedure: (§1) The ability of compounds to act as agonists or inverse agonists at human CB2 and CB1 receptors (hCB2, hCB1, respectively) and at the rat CB2 receptor (rCB2) was determined by measuring changes in intracellular cAMP levels. Chinese Hamster Ovary (CHO-K1) cell lines stably expressing hCB2 (Genebank: X74328) or hCB1 (Genebank: X54937) were purchased from Euroscreen (Gosselies, Belgium). The rat CB2 receptor was expressed from genomic DNA (provided by M. Abood, California Pacific Medical Center) in CHO-K1 cells from expression plasmid vector, pcDNA3.1.
# (§2) Cell lines were grown in suspension in EX-CELL 302 CHO Serum-free medium (Sigma, cat #14324C) supplemented with 1% Fetal Bovine Serum, glutamine and non-essential amino-acids under 0.4 mg/mL G418 selection.
# (§3) Receptor mediated responses were determined by measuring changes in intracellular cAMP using LANCE cAMP detection kit (cat #AD0264, Perkin Elmer, Wellesley, Mass.) based on time-resolved fluorescence resonance energy transfer (TR-FRET). Changes in cAMP were determined in cells pre-incubated with IBMX (isobutyl methylxanthine) and prestimulated with NKH-477 (a water soluble forskolin derivative, cat #1603, Tocris, Ellisville, Mo.) to increase basal cAMP levels as detailed below.
# (§4) On the day of the experiment, cells were spun at low speed for 5 min at room temperature. The supernatant was removed and cells were resuspended in stimulation buffer (Hanks Buffered Salt Solution/5 mM HEPES, containing 0.5 mM IBMX (cat #17018, Sigma) and 0.02% BSA (Perkin-Elmer, cat #CR84-100)). Cell clumps were removed by filtering through cell strainer 40 μm (BD Falcon, Discovery Labware, Bedford, Mass.) and diluted to 2×10^5 cells/mL. Antibody supplied with the LANCE cAMP immunoassay kit was then added according to the manufacturer's instructions. An aliquot of cells was taken for un-induced controls. To the remaining cells was added NKH-477 (a water soluble forskolin derivative, Tocris cat #1603) to a final concentration of 2-8 μM. Cells were then incubated for 30 min at room temperature prior to adding to Proxiplates containing test compounds (final DMSO concentration was less than 0.5%) with a Multidrop bulk dispenser, followed by a sixty minute incubation at room temperature. The response was stopped by addition of the detection mix supplied with the LANCE kit. The reagents were allowed to equilibrate for three hours prior to reading on an Envision multi-mode detector (Perkin-Elmer). TR-FRET was measured using a 330-380 nm excitation filter, a 665 nm emission filter, dichroic mirror 380 nm and Z=1 mm. Cyclic AMP concentrations in each well were back-calculated from a cAMP standard curve run concurrently during each assay. Each plate contained 16 wells of forskolin stimulated cells and 16 wells of forskolin plus CP55,940-treated cells. Cells were treated with 1 μM CP55,940 (Tocris cat. #0949). Concentrations of cAMP were expressed as a percent of the difference of these two groups of wells. Concentration-response data including EC50 (the concentration of compound producing 50% of the maximal response) and intrinsic activity (the percent maximal activation compared to full activation by CP55,940) were determined using a four-parameter non-linear regression algorithm (Xlfit equation 251, IDBS).
# [1] = target: human CB1 receptor (hCB1) (Homo sapiens, UniProt P21554); test: cell-based; format: cell-based
# Procedure: as §1, §2, §3, §4
# [2] = groups >100 nM-10 μM and >10 μM, cAMP, CHO-K1 hCB1, read-out: EC50 HCB1
# human CB1 receptor (hCB1), sequence (P21554 whole entry): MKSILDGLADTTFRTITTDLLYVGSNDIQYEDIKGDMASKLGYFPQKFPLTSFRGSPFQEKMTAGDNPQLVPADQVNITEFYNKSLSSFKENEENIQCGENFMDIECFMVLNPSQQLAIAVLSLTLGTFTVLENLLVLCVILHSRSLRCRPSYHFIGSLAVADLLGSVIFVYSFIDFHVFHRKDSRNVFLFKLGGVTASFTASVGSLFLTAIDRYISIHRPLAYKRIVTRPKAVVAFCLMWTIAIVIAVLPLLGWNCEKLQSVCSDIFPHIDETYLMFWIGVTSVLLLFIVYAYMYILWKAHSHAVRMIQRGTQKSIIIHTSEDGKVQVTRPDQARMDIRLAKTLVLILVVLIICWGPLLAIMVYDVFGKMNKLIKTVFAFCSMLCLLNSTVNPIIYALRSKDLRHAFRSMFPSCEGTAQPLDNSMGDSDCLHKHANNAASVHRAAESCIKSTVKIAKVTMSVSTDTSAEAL
SMILES,+/− RCB2 (rat CB2 receptor (rCB2)),EC50 [1],"EC50 [1, 2]"
"CCNC(=O)[C@@H](NC(=O)c1nc(-c2ccccc2)n2c1CN(C)CCC2)C(C)(C)C [Compound 478, (S)-N-(1-(ethylamino)-3,3-dimethyl-1-oxobutan-2-yl)-8-methyl-3-phenyl-6,7,8,9-tetrahydro-5H-imidazo[1,5-a][1,4]diazepine-1-carboxamide]",+,> 10000 nM,
"CCN1CCn2c(-c3ccccc3)nc(C(=O)NCC3CCOCC3)c2C1 [Compound 168, 7-ethyl-3-phenyl-N-((tetrahydro-2H-pyran-4-yl)methyl)-5,6,7,8-tetrahydroimidazo[1,5-a]pyrazine-1-carboxamide]",−,> 10000 nM,
"CNC(=O)[C@@H](NC(=O)c1nc(-c2cc(C)ccc2F)n2c1CN(C)CCC2)C(C)(C)C [Compound 362, (S)-N-(3,3-dimethyl-1-(methylamino)-1-oxobutan-2-yl)-3-(2-fluoro-5-methylphenyl)-8-methyl-6,7,8,9-tetrahydro-5H-imidazo[1,5-a][1,4]diazepine-1-carboxamide]",+,> 10000 nM,
"CN1CCn2c(-c3ccc(Cl)cc3F)nc(C(=O)N3CCC4(CC3)C(=O)NCN4c3ccccc3)c2C1 [Compound 214, 8-(3-(4-chloro-2-fluorophenyl)-7-methyl-5,6,7,8-tetrahydroimidazo[1,5-a]pyrazine-1-carbonyl)-1-phenyl-1,3,8-triazaspiro[4.5]decan-4-one]",−,> 10000 nM,
"CNC(=O)[C@H](CC(C)C)NC(=O)c1nc(-c2ccc(F)c(F)c2)n2c1CN(C)CC2 [Compound 278, (S)-3-(3,4-difluorophenyl)-7-methyl-N-(4-methyl-1-(methylamino)-1-oxopentan-2-yl)-5,6,7,8-tetrahydroimidazo[1,5-a]pyrazine-1-carboxamide]",+,> 10000 nM,
"CNC(=O)[C@@H](NC(=O)c1nc(-c2ccccc2)n2c1CN(S(=O)(=O)c1ccc(C#N)cc1)CC2)C(C)(C)C [Compound 108, (S)-7-(4-cyanophenylsulfonyl)-N-(3,3-dimethyl-1-(methylamino)-1-oxobutan-2-yl)-3-phenyl-5,6,7,8-tetrahydroimidazo[1,5-a]pyrazine-1-carboxamide]",,> 10000 nM,
"CNC(=O)[C@@H](NC(=O)c1nc(-c2ccsc2)n2c1CN(CC1CC1)CC2)C(C)(C)C [Compound 74, (S)-7-(cyclopropylmethyl)-N-(3,3-dimethyl-1-(methylamino)-1-oxobutan-2-yl)-3-(thiophen-3-yl)-5,6,7,8-tetrahydroimidazo[1,5-a]pyrazine-1-carboxamide]",,> 10000 nM,
"CNC(=O)[C@@H](NC(=O)c1nc(-c2ccc(Cl)cc2F)n2c1CN(C1CCNCC1)CCC2)C(C)(C)C [Compound 526, (S)-3-(4-chloro-2-fluorophenyl)-N-(3,3-dimethyl-1-(methylamino)-1-oxobutan-2-yl)-8-(piperidin-4-yl)-6,7,8,9-tetrahydro-5H-imidazo[1,5-a][1,4]diazepine-1-carboxamide]",,> 10000 nM,
"CC(C)(C)[C@@H](CO)NC(=O)c1nc(-c2ccccc2)n2c1CN(CC1CC1)CC2 [Compound 84, (S)-7-(cyclopropylmethyl)-N-(1-hydroxy-3,3-dimethylbutan-2-yl)-3-phenyl-5,6,7,8-tetrahydroimidazo[1,5-a]pyrazine-1-carboxamide]",,> 10000 nM,
"CC(C)(CO)CNC(=O)c1nc(-c2ccccc2)n2c1CN(CC1CC1)CC2 [Compound 83, 7-(cyclopropylmethyl)-N-(3-hydroxy-2,2-dimethylpropyl)-3-phenyl-5,6,7,8-tetrahydroimidazo[1,5-a]pyrazine-1-carboxamide]",,,> 10000 nM
"CNC(=O)[C@@H](NC(=O)c1nc(-c2cscc2C)n2c1CN(C)CC2)C(C)(C)C [Compound 81, (S)-N-(3,3-dimethyl-1-(methylamino)-1-oxobutan-2-yl)-7-methyl-3-(4-methylthiophen-3-yl)-5,6,7,8-tetrahydroimidazo[1,5-a]pyrazine-1-carboxamide]",,> 10000 nM,
"CNC(=O)[C@@H](NC(=O)c1nc(-c2ccsc2)n2c1CN(C)CC2)C(C)(C)C [Compound 73, (S)-N-(3,3-dimethyl-1-(methylamino)-1-oxobutan-2-yl)-7-methyl-3-(thiophen-3-yl)-5,6,7,8-tetrahydroimidazo[1,5-a]pyrazine-1-carboxamide]",,> 10000 nM,
"CNC(=O)[C@@H](NC(=O)c1nc(Br)n2c1CN(C)CCC2)C(C)(C)C [Compound 324, (S)-3-bromo-N-(3,3-dimethyl-1-(methylamino)-1-oxobutan-2-yl)-8-methyl-6,7,8,9-tetrahydro-5H-imidazo[1,5-a][1,4]diazepine-1-carboxamide]",,> 10000 nM,
"CNC(=O)[C@@H](NC(=O)c1nc(-c2ccsc2)n2c1CN(S(=O)(=O)c1ccc(F)cc1)CC2)C(C)(C)C [Compound 109, (S)-N-(3,3-dimethyl-1-(methylamino)-1-oxobutan-2-yl)-7-(4-fluorophenylsulfonyl)-3-(thiophen-3-yl)-5,6,7,8-tetrahydroimidazo[1,5-a]pyrazine-1-carboxamide]",,> 10000 nM,
"CNC(=O)[C@@H](NC(=O)c1nc(C2CCCC2)n2c1CN(C)CCC2)C(C)(C)C [Compound 497, (S)-3-cyclopentyl-N-(3,3-dimethyl-1-(methylamino)-1-oxobutan-2-yl)-8-methyl-6,7,8,9-tetrahydro-5H-imidazo[1,5-a][1,4]diazepine-1-carboxamide]",+,,
"CNC(=O)[C@@H](NC(=O)c1nc(Br)n2c1CN(C)CC2)C(C)(C)C [Compound 203, (S)-3-bromo-N-(3,3-dimethyl-1-(methylamino)-1-oxobutan-2-yl)-7-methyl-5,6,7,8-tetrahydroimidazo[1,5-a]pyrazine-1-carboxamide]",,> 10000 nM,
"CNC(=O)[C@H](C)NC(=O)c1nc(-c2ccccc2)n2c1CN(C)CC2 [Compound 78, (S)-7-methyl-N-(1-(methylamino)-1-oxopropan-2-yl)-3-phenyl-5,6,7,8-tetrahydroimidazo[1,5-a]pyrazine-1-carboxamide]",,,> 10000 nM
"CNC(=O)[C@@H](NC(=O)c1nc(-c2csc3ccccc23)n2c1CNCC2)C(C)(C)C [Compound 20, (S)-3-(benzo[b]thiophen-3-yl)-N-(3,3-dimethyl-1-(methylamino)-1-oxobutan-2-yl)-5,6,7,8-tetrahydroimidazo[1,5-a]pyrazine-1-carboxamide]",,> 10000 nM,
"CNC(=O)[C@@H](NC(=O)c1nc(-c2ccccc2)n2c1CN(S(=O)(=O)c1ccc(C(F)(F)F)cc1)CC2)C(C)(C)C [Compound 107, (S)-N-(3,3-dimethyl-1-(methylamino)-1-oxobutan-2-yl)-3-phenyl-7-(4-(trifluoromethyl)phenylsulfonyl)-5,6,7,8-tetrahydroimidazo[1,5-a]pyrazine-1-carboxamide]",,> 10000 nM,
"CNC(=O)[C@@H](NC(=O)c1nc(-c2ccccc2)n2c1C[N+](C)(C)CC2)C(C)(C)C [Compound 311, (S)-1-(3,3-dimethyl-1-(methylamino)-1-oxobutan-2-ylcarbamoyl)-7,7-dimethyl-3-phenyl-5,6,7,8-tetrahydroimidazo[1,5-a]pyrazin-7-ium iodide]",,> 10000 nM,
"CNC(=O)[C@@H](NC(=O)c1nc(C2=CCCCO2)n2c1CN(C)CCC2)C(C)(C)C [Compound 452, (S)-3-(3,4-dihydro-2H-pyran-6-yl)-N-(3,3-dimethyl-1-(metylamino)-1-oxobutan-2-yl)-8-methyl-6,7,8,9-tetrahydro-5H-imidazo[1,5-a][1,4]diazepine-1-carboxamide]",+,,
